The source of these data is BindingDB's records for patent US20230365590 (Shenzhen Chipscreen Biosciences, 2023).

In the assay the target is Programmed cell death 1 ligand/protein 1 (Homo sapiens, UniProt Q15116+Q9NZQ7). Description: In Vitro Inhibitory Activity Against PD-1/PD-L1 Binding. On the procedure: The experiment process was carried out according to the flow required in the operating manual of the test reagent.The process was as follows:(1) Experiment preparation: A test compound was diluted to different concentration gradients with the dilution buffer (the highest final concentration in a 20 μL final reaction system was 10 μM). The His-PD-1 protein was diluted to 800 nM (the final concentration in the 20 final reaction system was 100 nM). The PD-L1-Fc fusion protein was diluted to 16 nM (the final concentration was 2 nM). […] All tests were conducted by use of multiple holes.(4) The fluorescence detector Tecan (Spark 10M) was used to detect the fluorescence signal of each hole. The excitation wavelength was 320 nm, and the emission wavelengths for detection were 620 nm and 665 nm, respectively. The strength of PD-1/PD-L1 binding refers to a fluorescence signal ratio Em665/Em620.(5) Calculation formula of binding inhibition rate of test compound: Inhibition rate (%)=[1−(fluorescence signal ratio of detected hole−fluorescence signal ratio of 100% inhibition negative control)]/(fluorescence signal ratio of 0% inhibition positive control−fluorescence signal ratio of 100% inhibition negative control)×100%. […]
Programmed cell death 1 ligand/protein 1, sequence (Q9NZQ7 whole entry, the tested form may be a part): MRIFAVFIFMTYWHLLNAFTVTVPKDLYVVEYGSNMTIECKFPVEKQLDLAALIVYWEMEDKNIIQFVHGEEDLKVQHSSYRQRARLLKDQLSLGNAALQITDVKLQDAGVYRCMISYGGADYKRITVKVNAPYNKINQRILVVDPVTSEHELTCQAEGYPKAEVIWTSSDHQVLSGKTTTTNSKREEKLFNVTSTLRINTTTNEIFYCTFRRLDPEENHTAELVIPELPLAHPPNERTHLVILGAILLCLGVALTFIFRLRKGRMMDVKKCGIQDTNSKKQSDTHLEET
Programmed cell death 1 ligand/protein 1, sequence (Q15116 whole entry, the tested form may be a part): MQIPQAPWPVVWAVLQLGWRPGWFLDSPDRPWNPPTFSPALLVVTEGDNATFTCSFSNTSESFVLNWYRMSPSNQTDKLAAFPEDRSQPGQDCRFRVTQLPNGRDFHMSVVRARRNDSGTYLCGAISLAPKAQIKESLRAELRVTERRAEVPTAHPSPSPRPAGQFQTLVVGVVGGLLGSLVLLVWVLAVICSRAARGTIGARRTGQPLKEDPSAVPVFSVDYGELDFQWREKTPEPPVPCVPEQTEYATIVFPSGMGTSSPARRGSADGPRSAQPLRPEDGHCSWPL

Each structure is given as a SMILES string.

For orientation: IC50 means the midpoint of a concentration-inhibition curve. Turning to `COCC12CCC(CCN3CCc4c(nc(C(=O)Nc5cccc(-c6cccc(NC(=O)c7nc8c(n7C)CCN(CCC79CCC(C(=O)O)(CC7)C9)C8)c6Cl)c5Cl)n4C)C3)(CC1)C2` [US20230365590, Compound I-6], the IC50 is 1.17 nM.
